Source: patent publication US5808100A, “Chromene compounds and photochromic materials” (Tokuyama Corporation, priority 1995, dated 1998)

Assays:
[1] = Photochromic properties of polymer (2 mm thick) containing the chromene compound, xenon lamp irradiation 120 seconds; type: physicochemical; parameters: key to Color density ε(120)-ε(0): absorbance at λmax after 120 s irradiation minus before, ε(120)-ε(0); conditions: for Color density ε(120)-ε(0): 120 seconds irradiation, 20° C.±1° C.; for Color density ε(120)-ε(0) / ε(0): absorbancy of the polymer not irradiated (initial color): at λmax; for Color fading rate t1/2: time until absorbancy decreases to one-half of [ε(120)-ε(0)]: after 120 seconds irradiation; for Maximum absorption wavelength λMax (developed color tone): polymer after developing color
Procedure: (§1) 0.05 Parts of the chromene compound obtained in Example 1 was added to 70 parts of a tetraethylene glycol dimethacrylate, 15 parts of a triethylene glycol dimethacrylate, 10 parts of a glycidyl methacrylate and 5 parts of a 2-hydroethyl methacrylate, and was mixed to a sufficient degree. The mixture solution was poured into a mold constituted by a glass plate and a gasket made from an ethylene/vinyl acetate copolymer and then polymerized. The polymerization was conducted by using an air furnace while gradually raising the temperature up to 30° C. to 90° C. over a period of 18 hours, the temperature being maintained at 90° C. for two hours. After the polymerization, the polymer was taken out from the glass mold.
The obtained polymer (2 mm thick) was irradiated with light from a xenon lamp L-2480 (300 W) SHL-100 manufactured by Hamamatsu Photonics Co. through an Aero Mass filter (manufactured by Corning Co.) for 120 seconds under the conditions of 20° C.±1° C., beam intensities of 365 nm=2.4 mW/cm^2 and […]=24 μW/cm^2 on the polymer surface to develop color and to measure photochromic properties. The photochromic properties were expressed as described below.
Maximum absorption wavelength (λmax): λmax of the polymer after it has developed color was found by using a spectrophotometer (instantaneous multi-channel photodetector MCPD1000) manufactured by Otsuka Denshi Kogyo Co.
ε(120): Absorbancy of the polymer using light of a maximum absorption wavelength after it was irradiated under the above-mentioned conditions for 120 seconds.
ε(0): Absorbancy of the polymer that has not been irradiated using light of a wavelength same as the maximum absorption wavelength of light with which the polymer was irradiated.
ε(120)-ε(0): Color density
(§2) Color fading rate [t1/2 ]: Time required by the polymer irradiated for 120 seconds until the absorbancy decreases down to one-half of [ε(120)-ε(0)]. Durability [T1/2 ]: Time required until the absorbency at the maximum absorption wavelength decreases down to 1/2 of the initial absorbency as measured by using a xenon fadometer FAC-25AX-HC manufactured by Suga Shikenki Co.
(§3) The photochromic polymers were obtained in the same manner as described above but using the compounds obtained in Examples 2 to 33 as chromene compounds. For the purpose of comparison, properties of the compounds represented by the following formulas (A), (B), (D) and (E) were also shown in Table 3. [drawing 110]

[2] = Durability T1/2 by xenon fadometer FAC-25AX-HC; type: physicochemical; conditions: in polymer
Procedure: as §1, §2, §3

Compound	Color density ε(120)-ε(0) [1]	Color fading rate t1/2: time until absorbancy decreases to one-half of [ε(120)-ε(0)] [1]	ε(0): absorbancy of the polymer not irradiated (initial color) [1]	Maximum absorption wavelength λMax (developed color tone) [1]	Durability T1/2: time until absorbancy at maximum absorption wavelength decreases to 1/2 of the initial [2]
C1=CC(c2ccsc2)(c2ccco2)Oc2ccc3ccccc3c21 (centres unmarked) [Compound 6]	1.02	45 s	0.07	464 nm	21.7 days
COc1ccc2c3c(ccc2c1)OC(c1ccccc1)(c1ccccc1)C=C3 [B, reference compound]	0.74	90 s	0.04	472 nm	10 days
Fc1sccc1C1(c2ccc3ccccc3c2)C=Cc2c(ccc3ccccc23)O1 (centres unmarked) [Compound 7]	1.30	62 s	0.05	456 nm	20.8 days

More lines, now with the values ahead:

Color density ε(120)-ε(0) [1]	Color fading rate t1/2: time until absorbancy decreases to one-half of [ε(120)-ε(0)] [1]	ε(0): absorbancy of the polymer not irradiated (initial color) [1]	Maximum absorption wavelength λMax (developed color tone) [1]	Durability T1/2: time until absorbancy at maximum absorption wavelength decreases to 1/2 of the initial [2]	Compound
1.33	82 s	0.10	460 nm	21.2 days	C1=CC(c2ccsc2)(c2cc3ccccc3o2)Oc2cc(N3CCCCC3)c3ccccc3c21 (centres unmarked) [Compound 10]
1.44	80 s	0.06	480 nm	20.4 days	Fc1c(C2(c3ccco3)C=Cc3c(ccc4ccccc34)O2)ccc2ccccc12 (centres unmarked) [Compound 31]
1.28	65 s	0.05	450 nm	20.4 days	Fc1occc1C1(c2ccc3ccccc3c2)C=Cc2c(ccc3ccccc23)O1 (centres unmarked) [Compound 32]
1.05	50 s	0.06	460 nm	21.2 days	C1=CC(c2ccco2)(c2csc3ccccc23)Oc2ccc3ccccc3c21 (centres unmarked) [Compound 26]
